Biological target: ATP-dependent translocase ABCB1 (Homo sapiens, UniProt P08183)
Experiment: TP_TRANSPORTER: drug resistance (vinblastine) in KB-V1 cells
Type: functional, cell-based

Sequence of ATP-dependent translocase ABCB1 (P08183 whole entry): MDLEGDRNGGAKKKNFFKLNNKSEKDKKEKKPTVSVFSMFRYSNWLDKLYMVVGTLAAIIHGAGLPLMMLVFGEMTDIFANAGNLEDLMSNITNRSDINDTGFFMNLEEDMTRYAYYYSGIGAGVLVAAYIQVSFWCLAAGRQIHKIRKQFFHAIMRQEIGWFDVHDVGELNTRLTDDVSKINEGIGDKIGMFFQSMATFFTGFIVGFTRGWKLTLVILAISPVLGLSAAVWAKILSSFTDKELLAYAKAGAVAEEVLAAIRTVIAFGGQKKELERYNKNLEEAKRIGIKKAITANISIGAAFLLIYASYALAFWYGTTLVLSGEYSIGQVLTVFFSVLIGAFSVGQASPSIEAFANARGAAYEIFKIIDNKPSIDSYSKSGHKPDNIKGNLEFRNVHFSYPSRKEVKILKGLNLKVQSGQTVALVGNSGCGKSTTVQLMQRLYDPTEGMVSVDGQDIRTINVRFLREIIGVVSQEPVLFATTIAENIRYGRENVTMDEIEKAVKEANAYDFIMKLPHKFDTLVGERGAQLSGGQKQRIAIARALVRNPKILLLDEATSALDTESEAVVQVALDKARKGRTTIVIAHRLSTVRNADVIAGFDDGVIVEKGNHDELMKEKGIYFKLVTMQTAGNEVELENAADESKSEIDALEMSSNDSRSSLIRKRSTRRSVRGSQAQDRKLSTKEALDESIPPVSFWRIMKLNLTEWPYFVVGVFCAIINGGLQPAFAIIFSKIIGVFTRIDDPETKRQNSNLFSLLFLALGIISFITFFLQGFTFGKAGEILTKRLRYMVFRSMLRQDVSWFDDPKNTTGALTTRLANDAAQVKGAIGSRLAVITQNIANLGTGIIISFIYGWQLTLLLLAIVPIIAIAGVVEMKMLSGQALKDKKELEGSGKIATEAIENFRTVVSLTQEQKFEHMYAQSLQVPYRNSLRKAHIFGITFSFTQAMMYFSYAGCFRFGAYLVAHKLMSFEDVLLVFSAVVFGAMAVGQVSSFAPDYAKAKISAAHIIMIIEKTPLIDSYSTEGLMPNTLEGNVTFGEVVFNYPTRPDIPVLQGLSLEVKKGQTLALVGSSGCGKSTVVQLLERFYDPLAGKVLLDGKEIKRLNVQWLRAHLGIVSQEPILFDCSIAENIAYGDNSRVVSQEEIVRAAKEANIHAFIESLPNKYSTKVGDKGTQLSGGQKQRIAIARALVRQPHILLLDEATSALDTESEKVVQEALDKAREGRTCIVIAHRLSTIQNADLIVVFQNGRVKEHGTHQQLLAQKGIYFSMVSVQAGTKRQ

Activity: inhibitor [+]
Substance: BITTER MELON LEAF EXTRACT

Source: ChEMBL document CHEMBL2074423, “Inhibition of P-glycoprotein activity and reversal of cancer multidrug resistance by Momordica charantia extract” (Cancer Chemother Pharmacol, 2004)
